This experiment deals with HIV in the HTLV-1 transformed cell line MT-4. As to the kind of experiment: MT4 assay (antiviral HIV activity). The class given is cell-based. Conditions: MT-4 cells, readout at 96 hours with cell titer glo, 10 point dose response. The protocol: Antiviral HIV activity and cytotoxicity values for compounds of the invention from Table 1 were measured in parallel in the HTLV-1 transformed cell line MT-4 based on the method previously described (Hazen et al., 2007, In vitro antiviral activity of the novel, tyrosyl-based human immunodeficiency virus (HIV) type 1 protease inhibitor brecanavir (GW640385) in combination with other antiretrovirals and against a panel of protease inhibitor-resistant HIV (Hazen et al., “In vitro antiviral activity of the novel, tyrosyl-based human immunodeficiency virus (HIV) type 1 protease inhibitor brecanavir (GW640385) in combination with other antiretrovirals and against a panel of protease inhibitor-resistant HIV”, Antimicrob. Agents Chemother. 2007, 51: 3147-3154; and Pauwels et al., “Sensitive and rapid assay on MT-4 cells for the detection of antiviral compounds against the AIDS virus”, J. of Virological Methods 1987, 16: 171-185).
Luciferase activity was measured 96 hours later by adding a cell titer glo (Promega, Madison, Wis.). Percent inhibition of cell protection data was plotted relative to no compound control. Under the same condition, cytotoxicity of the compounds was determined using cell titer Glo™ (Promega, Madison, Wis.). IC50s were determined from a 10 point dose response curve using 3-4-fold serial dilution for each compound, which spans a concentration range >1000 fold. […]

pIC50: −log10 of the molar value.

Drawing on US20200255411A1, “ISOINDOLINE DERIVATIVES” (VIIV HEALTHCARE UK LIMITED, priority 2015, published 2020), this text covers IC50 for 1 compound.

What is called pIC50 is −log10 of the IC50, conventionally taken in molar units. On to `Cc1c(-c2c(C)c3c(c(C)c2[C@H](OC(C)(C)C)C(=O)O)CN(C(=O)c2cccc(F)c2)[C@@H]3C)cc(F)c2c1CCCO2` (atropisomer, axis not shown; (M)) [Example 1], for which the pIC50 was 8.77.
